The target in one assay is T1, ERp57 (Homo sapiens, UniProt P30101).
T1 construct: FLAG; made in house; host or cells: Escherichia coli Origami B (DE3), pET-15b
T1 sequence (P30101 25-505): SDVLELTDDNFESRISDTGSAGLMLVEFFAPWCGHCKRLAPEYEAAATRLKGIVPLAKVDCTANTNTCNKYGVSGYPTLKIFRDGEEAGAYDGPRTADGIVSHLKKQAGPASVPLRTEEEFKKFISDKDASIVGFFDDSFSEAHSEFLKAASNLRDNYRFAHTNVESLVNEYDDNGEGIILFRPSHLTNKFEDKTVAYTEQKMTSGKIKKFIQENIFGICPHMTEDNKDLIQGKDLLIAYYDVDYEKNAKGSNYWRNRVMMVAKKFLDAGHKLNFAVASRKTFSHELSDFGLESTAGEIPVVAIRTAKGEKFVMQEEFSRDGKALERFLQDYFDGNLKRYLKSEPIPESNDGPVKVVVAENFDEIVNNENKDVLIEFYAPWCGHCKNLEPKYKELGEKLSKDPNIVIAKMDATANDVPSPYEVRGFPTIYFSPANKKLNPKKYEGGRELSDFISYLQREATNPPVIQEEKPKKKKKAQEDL
Put plainly: Di-eosin-GSSG disulfide reductase assay. The format is biochemical. The protocol: The probe di-eosin glutathione disulfide, di-eosin-GSSG, was prepared as previously described in Raturi, A., Vacratsis, P. O., Seslija, D., Lee, L. & Mutus, B., Biochem J 391, 351-357 (2005). Reductase activity of purified thiol isomerases and PDI domains was monitored in a 96-well fluorescence plate format. PDI, AGHA-PDI, ERpS, ERp57, ERp72 and PDI domains were assayed at 50 nM in the presence or absence of the indicated small molecules, peptides or cathepsin G. The assay included 100 mM potassium phosphate (pH 7.4) containing 2 mM EDTA, 5 μM DTT and 150 nM of the di-eosin GSSG probe. The increase in fluorescence was determined for 20 minutes by excitation at 520 nm and emission at 550 nm in a Synergy Biotek 4. The reduction of 150 nM di-eosin-GSSG by 5 μM DTT in the presence or absence of mentioned small molecules, peptides or proteins served as a negative control.

A further assay has as its target T2, abb′x fragment of PDI (Homo sapiens, UniProt P07237).
T2 construct: 1.25 μg of the abb′x fragment; His; made in house; host or cells: Escherichia coli Origami B (DE3), pET-15b
T2 sequence (P07237 18-368 limits assumed): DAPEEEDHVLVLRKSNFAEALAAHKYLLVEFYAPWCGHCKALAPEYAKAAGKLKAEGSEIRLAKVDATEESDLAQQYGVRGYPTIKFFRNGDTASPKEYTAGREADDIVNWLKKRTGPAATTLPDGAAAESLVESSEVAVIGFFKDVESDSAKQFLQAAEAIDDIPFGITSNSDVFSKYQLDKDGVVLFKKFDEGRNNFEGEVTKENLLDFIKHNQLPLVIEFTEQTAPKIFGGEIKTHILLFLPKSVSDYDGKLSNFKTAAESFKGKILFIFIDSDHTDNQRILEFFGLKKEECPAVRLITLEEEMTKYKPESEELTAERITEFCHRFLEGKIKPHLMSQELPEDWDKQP
Briefly: Proteolysis assay with proteinase K. Here is the method: Proteinase K (2 μg/mL) was incubated with 1.25 μg of the abb′x fragment in 50 mM Tris-HCl containing 5 mM CaCl2 and 10 mM DTT. Reactions were aborted with the addition of 0.5 mM phenylmethanesulfonyl fluoride (PMSF). Subsequently, samples were subjected to Laemmli Sample buffer with 5% β-mercaptoethanol and heated at 95° C. for 10 minutes. Each sample was loaded on a 12% SDS-PAGE gel, followed by silver staining using the Pierce Silver Stain Kit (Thermo Scientific).

Consider `CCOC(=O)c1c(CNCCN(CC)CC)n(-c2ccccc2)c2cc(Br)c(O)cc12` [bepristat 2a], for which, on ERp57, the “cleavage of di-eosin-GSSG by ERp57 (catalytic activity)” value is “did not augment activity”. For the same compound, the “proteinase K activity (cleavage of ERp5)” value on abb′x fragment of PDI (control, not shown) is reported as “did not interfere with proteinase K activity”. The “cleavage of abb′x by proteinase K” value on abb′x fragment of PDI (presence versus absence of compound, FIG. 5b) is listed as “occurred more rapidly”.

(Values after patent US20180370912A1, “COMPOUNDS AND METHODS FOR TREATING DISEASES MEDIATED BY PROTEIN DISULFIDE ISOMERASE” (Beth Israel Deaconess Medical Center, Inc., priority 2017, published 2018).)
